{
  "source": "patent US20230116703A1",
  "about": "“NOVEL ERGOLINES AND METHODS OF TREATING MOOD DISORDERS” (priority 2021, published 2023)",
  "key": {"[1]": {"target": "T1, human 5-HT2C receptor (Homo sapiens, UniProt P28335)", "T1 sequence (P28335 33-458)": "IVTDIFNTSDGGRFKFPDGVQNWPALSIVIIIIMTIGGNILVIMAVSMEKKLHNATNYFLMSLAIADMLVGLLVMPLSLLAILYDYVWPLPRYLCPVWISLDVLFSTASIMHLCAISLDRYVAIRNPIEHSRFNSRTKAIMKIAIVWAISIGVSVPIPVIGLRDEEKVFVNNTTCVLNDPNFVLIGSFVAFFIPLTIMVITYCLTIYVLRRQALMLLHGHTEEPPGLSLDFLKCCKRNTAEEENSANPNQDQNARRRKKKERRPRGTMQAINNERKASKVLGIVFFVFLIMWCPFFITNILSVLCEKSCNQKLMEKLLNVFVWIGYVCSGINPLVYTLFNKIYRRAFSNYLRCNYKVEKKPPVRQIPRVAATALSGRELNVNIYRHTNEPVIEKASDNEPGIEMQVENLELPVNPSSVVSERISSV", "assay": "cell-based", "conditions": "Ca^2+ flux, agonist"}, "[2]": {"target": "T2, Alpha1A receptor (Homo sapiens, UniProt P35348)", "T2 sequence (P35348 1-466)": "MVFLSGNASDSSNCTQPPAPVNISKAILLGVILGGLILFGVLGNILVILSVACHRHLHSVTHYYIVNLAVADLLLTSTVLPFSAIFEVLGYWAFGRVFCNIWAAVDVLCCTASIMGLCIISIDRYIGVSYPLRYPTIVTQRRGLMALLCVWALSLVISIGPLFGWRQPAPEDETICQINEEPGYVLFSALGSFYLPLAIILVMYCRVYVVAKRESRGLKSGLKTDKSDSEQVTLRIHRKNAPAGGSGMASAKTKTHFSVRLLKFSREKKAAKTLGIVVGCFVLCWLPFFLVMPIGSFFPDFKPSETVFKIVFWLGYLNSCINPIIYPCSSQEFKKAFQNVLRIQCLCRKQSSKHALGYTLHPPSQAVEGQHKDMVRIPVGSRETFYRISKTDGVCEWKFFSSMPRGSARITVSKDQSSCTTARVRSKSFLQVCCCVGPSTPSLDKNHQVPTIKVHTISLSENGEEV", "assay": "FLIPR Ca^2+ flux agonist assay at Alpha1A", "format": "cell-based", "protocol": "Disclosed compounds were tested for agonist activity at several adrenergic (Alpha1A and Alpha2A) and dopamine (D1 and D2) receptor subtypes using Ca^2+ flux functional assays, with the results summarized in Table 6. Selectivity for the 5-HT2A receptor over these other targets varied depending on the specific target and compound.\nFunctional Assays at Adrenergic and Dopamine Receptors. Agonist activity at Alpha1A, Alpha2A, D1, and D2 receptors was determined using a FLIPR Ca^2+ flux assay at WuXi AppTec (Hong Kong) Limited according to their standard protocols. Briefly, stably transfected cells expressing the receptor of interest were grown and plated in a 384 well plate and incubated at 37° C. and 5% CO2 overnight. A solution of 250 mM probenecid in 1 mL FLIPR assay buffer was prepared fresh. This was combined with a fluorescent dye (Fluo-4 Direct™) to make a final assay concentration of 2.5 mM. Compounds were diluted 1:3.16 for 10 points and 750 nL was added to a 384 well compound plate using ECHO along with 30 μL assay buffer. The fluorescent dye was then added to the assay plate along with assay buffer to a final volume of 40 μL. The cell plate was incubated for 50 min at 37° C. and 5% CO2 and placed into the FLIPR Tetra along with the compound plate. 10 μL of references and compounds were then transferred from the compound plate into the cell plate and the fluorescent signal was read."}, "[3]": {"system": "C57BL/6 mice", "assay": "Head twitch response (HTR) in mice", "format": "in vivo, mouse", "conditions": "SC; for ED50: 20 min, read-out: ED50 (95% CI); for ED50 / Most Efficacious Dose / Emax (95% CI): mouse HTR; for ED50 / Emax (95% CI): 20 min observation, curve fit, poor in some cases; for # HTR at Most Efficacious Dose: head twitches in 20 min"}, "[4]": {"conditions": "Ca^2+ flux, agonist, read-out: Alpha1A EC50"}},
  "note": "Read-outs that look alike come from different tables or passages of the source.",
  "data": [
    {"smiles": "CCCN1C[C@H](C(=O)N(CC)CC)C=C2c3cccc4[nH]cc(c34)C[C@H]21", "note": "[Compound 1, (6aR,9R)—N,N-diethyl-7-propyl-4,6,6a,7,8,9-hexahydroindolo[4,3-fg]quinoline-9-carboxamide]", "values": [
      {"measurement": "EC50", "setting": "[1]", "value": 11.9, "unit": "nM"},
      {"measurement": "EC50", "setting": "[2]", "value": 8.82, "unit": "nM"},
      {"measurement": "ED50", "setting": "[3]", "value": 0.0946, "unit": "mg/kg"},
      {"measurement": "Most Efficacious Dose", "setting": "[3]", "value": 1, "unit": "mg/kg"},
      {"measurement": "Emax (95% CI)", "setting": "[3]", "value": "21.63 (18.45-25.78)"},
      {"measurement": "induction of head twitch response (in words)", "setting": "[3]; mouse", "value": "robust and dose-dependent HTR"}
    ]},
    {"smiles": "CCN(CC)C(=O)[C@@H]1C=C2c3cccc4[nH]cc(c34)C[C@H]2N(CCCF)C1", "note": "[Compound 2, (6aR,9R)—N,N-diethyl-7-(3-fluoropropyl)-4,6,6a,7,8,9-hexahydroindolo[4,3-fg]quinoline-9-carboxamide]", "values": [
      {"measurement": "EC50", "setting": "[1]", "value": 4.35, "unit": "nM"},
      {"measurement": "EC50", "setting": "[2]", "value": 237, "unit": "nM"},
      {"measurement": "ED50", "setting": "[3]", "value": 0.0703, "unit": "mg/kg"},
      {"measurement": "Most Efficacious Dose", "setting": "[3]", "value": 0.32, "unit": "mg/kg"},
      {"measurement": "Emax (95% CI)", "setting": "[3]", "value": "20.47 (18.43-22.6)"}
    ]},
    {"smiles": "CCCN1C[C@H](C(=O)N[C@H](C)CC)C=C2c3cccc4[nH]cc(c34)C[C@H]21", "note": "[Compound 3, (6aR,9R)—N—((R)-sec-butyl)-7-propyl-4,6,6a,7,8,9-hexahydroindolo[4,3-fg]quinoline-9-carboxamide]", "values": [
      {"measurement": "EC50", "setting": "[1]", "value": 0.822, "unit": "nM"},
      {"measurement": "EC50", "setting": "[2]", "value": 42.3, "unit": "nM"},
      {"measurement": "ED50", "setting": "[3]", "value": 0.0401, "unit": "mg/kg"},
      {"measurement": "Most Efficacious Dose", "setting": "[3]", "value": 0.32, "unit": "mg/kg"},
      {"measurement": "Emax (95% CI)", "setting": "[3]", "value": "25.56 (22.08-29.36)"},
      {"measurement": "# HTR at Most Efficacious Dose", "setting": "[3]; mouse", "value": 27.0}
    ]},
    {"smiles": "CCCN1C[C@H](C(=O)N2[C@@H](C)C[C@@H]2C)C=C2c3cccc4[nH]cc(c34)C[C@H]21", "note": "[Compound 4, ((2S,4S)-2,4-dimethylazetidin-1-yl)((6aR,9R)-7-propyl-4,6,6a,7,8,9-hexahydroindolo[4,3-fg]quinolin-9-yl)methanone]", "values": [
      {"measurement": "EC50", "setting": "[1]", "value": 5.6, "unit": "nM"},
      {"measurement": "EC50", "setting": "[2]", "value": 116, "unit": "nM"},
      {"measurement": "ED50", "setting": "[3]", "value": 0.376, "unit": "mg/kg"},
      {"measurement": "Most Efficacious Dose", "setting": "[3]", "value": 0.1, "unit": "mg/kg"},
      {"measurement": "Emax (95% CI)", "setting": "[3]", "value": "4.034 (2.965-5.217)"},
      {"measurement": "efficacy in HTR assay (in words)", "setting": "[3]; mouse", "value": "less efficacious"}
    ]},
    {"smiles": "CCCN1C[C@H](C(=O)NC(CC)CC)C=C2c3cccc4[nH]cc(c34)C[C@H]21", "note": "[Compound 6, (6aR,9R)—N-(pentan-3-yl)-7-propyl-4,6,6a,7,8,9-hexahydroindolo[4,3-fg]quinoline-9-carboxamide]", "values": [
      {"measurement": "EC50", "setting": "[1]", "value": 6.18, "unit": "nM"},
      {"measurement": "ED50", "setting": "[3]", "value": 0.139, "unit": "mg/kg"},
      {"measurement": "Most Efficacious Dose", "setting": "[3]", "value": 1, "unit": "mg/kg"},
      {"measurement": "Emax (95% CI)", "setting": "[3]", "value": "23.06 (19.86-27.47)"}
    ]},
    {"smiles": "CCN(CC)C(=O)[C@@H]1C=C2c3cccc4[nH]cc(c34)C[C@H]2N(Cc2ccccc2OC)C1", "note": "[Compound 10, (6aR,9R)—N,N-diethyl-7-(2-methoxybenzyl)-4,6,6a,7,8,9-hexahydroindolo[4,3-fg]quinoline-9-carboxamide]", "values": [
      {"measurement": "EC50", "setting": "[1]", "value": "> 10000", "unit": "nM"},
      {"measurement": "EC50", "setting": "[2]; [4]", "value": "> 31600", "unit": "nM"},
      {"measurement": "ED50", "setting": "[3]", "value": 1.26, "unit": "mg/kg"},
      {"measurement": "Most Efficacious Dose", "setting": "[3]", "value": 3.2, "unit": "mg/kg"},
      {"measurement": "Emax (95% CI)", "setting": "[3]", "value": "7.749 (4.126-???)"},
      {"measurement": "efficacy in HTR assay (in words)", "setting": "[3]; mouse", "value": "low efficacy"},
      {"measurement": "# HTR at Most Efficacious Dose", "setting": "[3]; mouse", "value": 6.5}
    ]},
    {"smiles": "CCN(CC)C(=O)[C@@H]1C=C2c3cccc4[nH]cc(c34)C[C@H]2N(CCc2ccccc2OC)C1", "note": "[Compound 11, (6aR,9R)—N,N-diethyl-7-(2-methoxyphenethyl)-4,6,6a,7,8,9-hexahydroindolo[4,3-fg]quinoline-9-carboxamide]", "values": [
      {"measurement": "EC50", "setting": "[1]", "value": 74.5, "unit": "nM"},
      {"measurement": "EC50", "setting": "[2]; [4]", "value": "> 31600", "unit": "nM"},
      {"measurement": "ED50", "setting": "[3]", "value": 2.21, "unit": "mg/kg"},
      {"measurement": "Most Efficacious Dose", "setting": "[3]", "value": 3.2, "unit": "mg/kg"},
      {"measurement": "Emax (95% CI)", "setting": "[3]", "value": "19.79 (12.66-80.7)"},
      {"measurement": "efficacy in HTR assay (in words)", "setting": "[3]; mouse", "value": "low efficacy"},
      {"measurement": "# HTR at Most Efficacious Dose", "setting": "[3]; mouse", "value": 12.0}
    ]}
  ]
}
